Values belong to the compound of their own block, whether it stands above or below them.
Key:
PDEs (non-selective) = details: range observed for other PDEs; read-out: Selective for PDE type (IC50): non-selective; cited from earlier work
HSPDE10A1 [1] = target: T1, HSPDE10A1 (Homo sapiens, UniProt Q9HCR9); assay: Inhibition of HSPDE10A1 PDE activity, scintillation proximity assay with cGMP as substrate
PDE3 = details: read-out: Selective for PDE type (IC50): PDE3; cited from earlier work
PDE4 = details: read-out: Selective for PDE type (IC50): PDE4; cited from earlier work
HSPDE10A1 [2] = target: T1, HSPDE10A1; assay: HSPDE10A1 enzyme kinetics (Km, Vmax) with cAMP and cGMP as substrates; details: substrate 0.15-10 μM, Michaelis-Menten plot

T1 sequence (Q9HCR9 445-933): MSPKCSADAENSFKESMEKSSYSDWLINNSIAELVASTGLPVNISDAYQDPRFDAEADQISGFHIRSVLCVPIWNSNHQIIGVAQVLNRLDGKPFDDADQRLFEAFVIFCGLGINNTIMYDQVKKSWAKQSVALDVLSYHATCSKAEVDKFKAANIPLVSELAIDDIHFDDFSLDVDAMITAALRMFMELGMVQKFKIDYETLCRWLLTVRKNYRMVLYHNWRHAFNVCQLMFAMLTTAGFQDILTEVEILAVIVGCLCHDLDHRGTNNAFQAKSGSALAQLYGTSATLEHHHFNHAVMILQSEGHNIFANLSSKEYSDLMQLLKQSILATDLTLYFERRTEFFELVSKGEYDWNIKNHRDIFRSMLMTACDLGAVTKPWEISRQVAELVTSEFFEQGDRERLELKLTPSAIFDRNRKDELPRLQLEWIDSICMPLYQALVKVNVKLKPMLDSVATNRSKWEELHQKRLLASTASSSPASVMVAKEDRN

IC50 (HSPDE10A1 [1]): 40 µM
Compound: CC(C)Cn1c(=O)n(C)c(=O)c2[nH]cnc21 [IBMX, 3-isobutyl1-methylxanthine]
IC50 (PDEs (non-selective)): 2 to 50 µM

Compound: Cc1[nH]c(=O)c(C#N)cc1-c1ccncc1 [Milrinone]
IC50 (HSPDE10A1 [1]): > 200 µM
IC50 (PDE3): 1 µM

IC50 (HSPDE10A1 [1]): 160 µM
Compound: COc1ccc(C2CNC(=O)C2)cc1OC1CCCC1 (centres unmarked) [Rolipram]

Km (HSPDE10A1 [2]; read-out: Km for HSPDE10A1): 0.52 µM
Vmax (rate of hydrolysis by HSPDE10A1) (HSPDE10A1 [2]): 0.21 μmole/min/ml enzyme
Compound: Nc1nc2c(ncn2[C@@H]2O[C@@H]3COP(=O)(O)O[C@H]3[C@H]2O)c(=O)[nH]1 [cGMP]

Reference: patent US6416991B1, “Human cyclic nucleotide PDES” (Incyte Genomics, Inc., priority 1999, dated 2002)
